This note sets out measurements from patent US7498358B2, “Human ADAM-10 inhibitors” (Exelixis, Inc., priority 2001, dated 2009).

Where two headings read alike, the source gives them in different places.

In assay [1] the target is T1, hADAM-10 (UniProt O14672).
T1 sequence (O14672 1-748): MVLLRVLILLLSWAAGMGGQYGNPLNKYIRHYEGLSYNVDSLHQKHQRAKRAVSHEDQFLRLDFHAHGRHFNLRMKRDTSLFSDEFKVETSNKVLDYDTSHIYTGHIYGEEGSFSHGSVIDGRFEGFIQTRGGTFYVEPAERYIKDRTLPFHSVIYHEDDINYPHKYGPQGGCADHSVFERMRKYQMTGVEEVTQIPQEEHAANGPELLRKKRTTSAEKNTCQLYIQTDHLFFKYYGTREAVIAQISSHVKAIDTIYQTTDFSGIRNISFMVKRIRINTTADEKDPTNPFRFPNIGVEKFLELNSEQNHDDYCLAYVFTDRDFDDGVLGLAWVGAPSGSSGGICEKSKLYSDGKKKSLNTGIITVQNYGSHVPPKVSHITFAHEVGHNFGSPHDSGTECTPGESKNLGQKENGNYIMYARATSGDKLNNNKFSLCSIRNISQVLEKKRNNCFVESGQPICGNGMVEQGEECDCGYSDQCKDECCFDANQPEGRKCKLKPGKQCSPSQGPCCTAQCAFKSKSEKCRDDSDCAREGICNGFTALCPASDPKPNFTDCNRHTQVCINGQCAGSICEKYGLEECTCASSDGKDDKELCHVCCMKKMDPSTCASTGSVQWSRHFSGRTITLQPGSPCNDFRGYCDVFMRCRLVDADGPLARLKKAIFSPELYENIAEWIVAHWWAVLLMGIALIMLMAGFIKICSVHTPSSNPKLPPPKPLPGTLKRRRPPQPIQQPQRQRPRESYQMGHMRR
Description: ADAM-10 enzyme assay: cleavage of fluorogenic 10-residue peptide (DABCYL/EDANS). It is filed as biochemical, human. Conditions: Table 4, in vitro. On the procedure:
mADAM-10 or hADAM-10 activity was measured as the ability to cleave a 10-residue peptide (DABCYL-Leu-Leu-Ala-Gln-Lys-*-Leu-Arg-Ser-Ser-Arg-EDANS). […] Enzyme was diluted to a final active concentration of 5 nM in Buffer A (50 mM HEPES 8.0, 100 mM NaCl, 1 mM CaCl2 and 0.01% NP-40). Serial dilutions for compounds were performed ranging from 100 uM to 0.5 nM using a Beckman Biomek 2000 in polypropylene plates (Greiner). 20 μl of enzyme solution was added to 10 μl of compound in buffer A, and allowed to incubate for 15 min in 384 well black, Greiner, microtiter plates (#781076). 20 μl of substrate (12.5 uM in Buffer A) was then added, resulting in final reaction conditions of 2 nM ADAM-10, 5 μM substrate, and compound concentrations ranging from 20 uM to 0.1 nM. The reaction was incubated for 2 hr at RT, and fluorescence was measured at Ex355, Em460 on a Wallac Victor 2 fluorescence reader. For final analysis of potent inhibitors, a similar reaction was set up with a final active ADAM-10 concentration of 0.1 nM. This reaction was incubated for 16 hr at RT and fluorescence was read using identical conditions.
(§1) Inhibition is indicated as IC50 with the following key: A=IC50 less than 50 nM, B=IC50 greater than 50 nM, but less than 1000 nM, C=IC50 greater than […], but less than 20,000 nM, and D=IC50 greater than 20,000 nM.

Assay [2] has as its system various metalloproteases. Description: in vitro inhibition of various metalloproteases (Table 4). It is filed as biochemical. Conditions: Table 4, in vitro. On the procedure: as §1
Assay [3] has as its target T2, various metalloproteases (Homo sapiens, UniProt P08253).
T2 sequence (P08253 110-660): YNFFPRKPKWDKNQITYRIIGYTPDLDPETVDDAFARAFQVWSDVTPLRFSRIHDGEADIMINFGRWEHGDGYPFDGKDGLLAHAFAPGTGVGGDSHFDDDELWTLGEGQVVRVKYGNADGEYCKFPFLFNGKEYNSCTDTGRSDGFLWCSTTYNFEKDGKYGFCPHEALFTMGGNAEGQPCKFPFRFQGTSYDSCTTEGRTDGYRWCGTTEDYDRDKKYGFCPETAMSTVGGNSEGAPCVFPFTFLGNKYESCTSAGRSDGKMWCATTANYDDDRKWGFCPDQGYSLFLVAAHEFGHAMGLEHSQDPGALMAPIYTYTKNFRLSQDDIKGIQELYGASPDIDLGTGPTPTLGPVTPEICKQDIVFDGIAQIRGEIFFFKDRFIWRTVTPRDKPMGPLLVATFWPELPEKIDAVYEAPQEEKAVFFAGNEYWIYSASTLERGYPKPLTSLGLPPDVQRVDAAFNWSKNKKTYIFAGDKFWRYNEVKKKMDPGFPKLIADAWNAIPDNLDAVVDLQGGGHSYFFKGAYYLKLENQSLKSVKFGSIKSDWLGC
Described as above. It is filed as biochemical. Particulars: MMP2; Table 4, in vitro. On the procedure:
as §1

Assay [4] deals with various metalloproteases (Homo sapiens, UniProt P08254). The assay is described as above. Particulars: MMP3; Table 4, in vitro. It is filed as biochemical. On the procedure:
as §1

In assay [5] the target is various metalloproteases (Homo sapiens, UniProt P45452). The description is as above. It is filed as biochemical. Conditions: MMP13; Table 4, in vitro. On the procedure: as §1

Chain of various metalloproteases (Homo sapiens, UniProt P08254) (P08254 100-477): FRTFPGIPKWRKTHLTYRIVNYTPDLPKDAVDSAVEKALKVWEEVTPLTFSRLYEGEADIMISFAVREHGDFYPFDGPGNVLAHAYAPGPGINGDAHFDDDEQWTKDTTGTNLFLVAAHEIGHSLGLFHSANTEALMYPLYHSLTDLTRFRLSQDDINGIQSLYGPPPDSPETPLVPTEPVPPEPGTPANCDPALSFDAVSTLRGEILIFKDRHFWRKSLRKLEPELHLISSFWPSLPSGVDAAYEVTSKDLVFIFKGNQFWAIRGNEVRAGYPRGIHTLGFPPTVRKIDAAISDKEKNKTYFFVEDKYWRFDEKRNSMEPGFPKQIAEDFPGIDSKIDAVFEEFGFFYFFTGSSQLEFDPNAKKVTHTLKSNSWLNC

Broadly, the IC50 is the concentration needed to halve the response being measured. Consider `N#Cc1ccc(C[C@@H](NS(=O)(=O)c2cc(F)c(Oc3ccc(F)cc3)c(F)c2)C(=O)NO)cc1` [Compound 72, 4-cyano-N^2-({3,5-difluoro-4-[(4-fluorophenyl)oxy]phenyl}sulfonyl)-N^1-hydroxy-D-phenylalaninamide], for which the IC50 in assay [1] is 50 to 1000 nM; in assay [2] (MMP1, read-out: MMP1 IC50), 50 to 20000 nM; in assay [2] (MMP2, read-out: MMP2 IC50) it was below 50 nM; in assay [2] (MMP3, read-out: MMP3 IC50), 50 to 1000 nM; in assay [2] (MMP13, read-out: MMP13 IC50), below 50 nM.
For `Cc1cc(C)cc(Oc2c(F)cc(S(=O)(=O)N[C@@H](CC3CCC(CN)CC3)C(=O)NO)cc2F)c1` (some centres unmarked) [Compound 106, 3-[4-(aminomethyl)cyclohexyl]-N^2-({4-[(3,5-dimethylphenyl)oxy]-3,5-difluorophenyl}sulfonyl)-N^1-hydroxyalaninamide], in assay [1], the IC50 fell in the range of 50 to 20000 nM.
Regarding “3-(1-{(Z)-[(aminocarbonyl)imino][(2-methoxyethyl)amino]methyl}piperidin-4-yl)-N^1-hydroxy-N^2-[(4-phenoxyphenyl)sulfonyl]alaninamide [Compound 44]”, the concentration for half-maximal inhibition (IC50) in assay [2] (MMP1, read-out: MMP1 IC50) was below 50 nM; in assay [2] (MMP2, read-out: MMP2 IC50) it was below 50 nM; in assay [2] (MMP3, read-out: MMP3 IC50), below 50 nM; in assay [2] (MMP13, read-out: MMP13 IC50), below 50 nM.
Take “N^6-[(E)-(cyanoimino)(propylamino)methyl]-N^1-hydroxy-N^2-[(4-phenoxyphenyl)sulfonyl]-D-lysinamide [Compound 23]”: the 50% inhibitory concentration (IC50) in assay [1] is below 50 nM; in assay [2] (MMP1, read-out: MMP1 IC50), 50 to 1000 nM; in assay [2] (MMP2, read-out: MMP2 IC50) it was below 50 nM; in assay [2] (MMP3, read-out: MMP3 IC50), below 50 nM; in assay [2] (MMP13, read-out: MMP13 IC50), below 50 nM; in assay [2] (TACE, read-out: TACE IC50) it was below 50 nM.
As to `NCC1CCC(C[C@H](NS(=O)(=O)c2ccc(-c3cccc(F)c3)nc2)C(=O)NO)CC1` (some centres unmarked) [Compound 105, 3-[4-(aminomethyl)cyclohexyl]-N^2-{[6-(3-fluorophenyl)pyridin-3-yl]sulfonyl}-N^1-hydroxyalaninamide], the IC50 in assay [1] was below 50 nM; in assay [3] it was below 50 nM; in assay [4], 50 to 1000 nM; in assay [5] it was below 50 nM.
As for `NCCCC[C@@H](NS(=O)(=O)c1ccc(Oc2ccccc2)cc1)C(=O)NO` [Compound 13, N^1-hydroxy-N^2-{[4-(phenyloxy)phenyl]sulfonyl}-D-lysinamide], the IC50 was below 50 nM in assay [1]; below 50 nM in assay [2] (MMP1, read-out: MMP1 IC50); below 50 nM in assay [2] (MMP2, read-out: MMP2 IC50); 50 to 1000 nM in assay [2] (TACE, read-out: TACE IC50).
For `N=C(N)NCCC[C@@H](NS(=O)(=O)c1ccc(Oc2ccc(F)cc2)nc1)C(=O)NO` [Compound 68, N^2-({6-[(4-fluorophenyl)oxy]pyridin-3-yl}sulfonyl)-N^1-hydxoxy-D-argininamide], the IC50 in assay [1] is below 50 nM; in assay [2] (MMP1, read-out: MMP1 IC50), 50 to 20000 nM; in assay [2] (MMP3, read-out: MMP3 IC50), 50 to 1000 nM; in assay [2] (MMP13, read-out: MMP13 IC50), below 50 nM.
On to “3-{1-[(Z)-(cyanoimino)(propylamino)methyl]piperidin-4-yl}-N^1-hydroxy-N^2-[(4-phenoxyphenyl)sulfonyl]alaninamide [Compound 41]”, for which the IC50 in assay [1] is below 50 nM; in assay [2] (MMP1, read-out: MMP1 IC50), 50 to 20000 nM; in assay [2] (MMP3, read-out: MMP3 IC50), below 50 nM; in assay [2] (MMP13, read-out: MMP13 IC50), below 50 nM; in assay [2] (TACE, read-out: TACE IC50), below 50 nM.
On to `CC(C)(SCC(=O)N1CCOCC1)[C@@H](NS(=O)(=O)c1cc(F)c(Oc2ccc(Cl)cc2)c(F)c1)C(=O)NO` [Compound 91, N^2-({4-[(4-chlorophenyl)oxy]-3,5-difluorophenyl}sulfonyl)-N^1-hydroxy-3-[(2-morpholin-4-yl-2-oxoethyl)thio]-D-valinamide], for which the IC50 in assay [2] (MMP2, read-out: MMP2 IC50) is below 50 nM.
On to `Cc1cc(C)cc(Oc2c(F)cc(S(=O)(=O)NC(C(=O)NO)C3CCNCC3)cc2F)c1` (centres unmarked) [Compound 99, N^2-[({4-[(3,5-dimethylphenyl)oxy]-3,5-difluorophenyl}sulfonyl)amino]-N^1-hydroxy-2-piperidin-4-ylacetamide], for which the IC50 in assay [1] was below 50 nM; in assay [2] (MMP2, read-out: MMP2 IC50), below 50 nM; in assay [2] (MMP3, read-out: MMP3 IC50) it was below 50 nM; in assay [2] (MMP13, read-out: MMP13 IC50) it was below 50 nM.
For `N=C(N)NCCC[C@@H](NS(=O)(=O)c1ccc(Oc2ccccc2)cc1)C(=O)NO` [Compound 2, N^1-hydroxy-N^2-[(4-phenoxyphenyl)sulfonyl]-D-argininamide], the IC50 was below 50 nM in assay [1]; 50 to 20000 nM in assay [2] (MMP1, read-out: MMP1 IC50); below 50 nM in assay [2] (MMP2, read-out: MMP2 IC50); 50 to 1000 nM in assay [2] (MMP3, read-out: MMP3 IC50); below 50 nM in assay [2] (MMP8, read-out: MMP8 IC50); below 50 nM in assay [2] (MMP9, read-out: MMP9 IC50). The IC50 in assay [2] (MMP13, read-out: MMP13 IC50) is below 50 nM; in assay [2] (TACE, read-out: TACE IC50), 50 to 1000 nM.
For `CN(C)CC[C@@H](NS(=O)(=O)c1cc(F)c(Oc2ccc(Cl)cc2)c(F)c1)C(=O)NO` [Compound 89, (2R)-N^2-[({4-[(4-chlorophenyl)oxy]-3,5-difluorophenyl}sulfonyl)amino]-4-(dimethylamino)-N^1-hydroxybutanamide], the IC50 was below 50 nM in assay [1]; below 50 nM in assay [2] (MMP2, read-out: MMP2 IC50); 50 to 20000 nM in assay [2] (MMP3, read-out: MMP3 IC50); 50 to 1000 nM in assay [2] (MMP13, read-out: MMP13 IC50).
Turning to `O=C(NO)C(NS(=O)(=O)c1ccc(Oc2ccc(F)cc2)cc1)C1CCNCC1` (centres unmarked) [Compound 97, N^2-[({4-[(4-fluorophenyl)oxy]phenyl}sulfonyl)amino]-N^1-hydroxy-2-piperidin-4-ylacetamide], the half-maximal inhibitory concentration (IC50) in assay [1] is below 50 nM; in assay [2] (MMP3, read-out: MMP3 IC50) it was below 50 nM; in assay [2] (MMP13, read-out: MMP13 IC50) it was below 50 nM.
